Measurements: patent US20250213555A1, “SUBSTITUTED TETRAHYDROFURAN ANALOGS AS MODULATORS OF SODIUM CHANNELS” (VERTEX PHARMACEUTICALS INCORPORATED, priority 2021, published 2025)

target: human Nav 1.8 (Homo sapiens, UniProt Q9Y5Y9); assay: E-VIPR assay detecting and measuring Nav inhibition properties; assay type: cell-based; conditions: HEK cells expressing a truncated form of human Nav 1.8; compound numbers without "*" (not marked as run in the presence of human serum); read-out: measured IC50 value in the E-VIPR Assay
Outline: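 Nav inhibition was read by E-VIPR: cells were electrically stimulated while coumarin/oxonol FRET emissions were recorded. Cells were HEK expressing a truncated human Nav 1.8 and co-transduced with KIR2.1, and were assayed in 25% final human serum.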

Chain of human Nav 1.8 (Q9Y5Y9 126-399 limits assumed): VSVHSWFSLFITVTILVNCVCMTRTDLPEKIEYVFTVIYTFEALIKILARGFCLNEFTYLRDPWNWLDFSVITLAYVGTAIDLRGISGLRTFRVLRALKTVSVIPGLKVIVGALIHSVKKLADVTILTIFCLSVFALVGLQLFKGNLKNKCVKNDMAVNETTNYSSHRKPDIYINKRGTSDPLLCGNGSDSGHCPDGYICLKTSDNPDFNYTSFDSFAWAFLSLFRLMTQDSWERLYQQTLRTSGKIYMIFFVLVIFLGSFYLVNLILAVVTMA
Chain of human Nav 1.8 (Q9Y5Y9 660-890 limits assumed): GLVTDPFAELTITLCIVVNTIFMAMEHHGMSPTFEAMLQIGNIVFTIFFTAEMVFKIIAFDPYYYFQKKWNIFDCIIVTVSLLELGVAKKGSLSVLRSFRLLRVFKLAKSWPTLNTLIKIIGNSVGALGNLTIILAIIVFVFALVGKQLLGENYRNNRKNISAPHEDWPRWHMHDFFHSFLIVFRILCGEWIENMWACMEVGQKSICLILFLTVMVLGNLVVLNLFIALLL
Chain of human Nav 1.8 (Q9Y5Y9 1148-1722 limits assumed): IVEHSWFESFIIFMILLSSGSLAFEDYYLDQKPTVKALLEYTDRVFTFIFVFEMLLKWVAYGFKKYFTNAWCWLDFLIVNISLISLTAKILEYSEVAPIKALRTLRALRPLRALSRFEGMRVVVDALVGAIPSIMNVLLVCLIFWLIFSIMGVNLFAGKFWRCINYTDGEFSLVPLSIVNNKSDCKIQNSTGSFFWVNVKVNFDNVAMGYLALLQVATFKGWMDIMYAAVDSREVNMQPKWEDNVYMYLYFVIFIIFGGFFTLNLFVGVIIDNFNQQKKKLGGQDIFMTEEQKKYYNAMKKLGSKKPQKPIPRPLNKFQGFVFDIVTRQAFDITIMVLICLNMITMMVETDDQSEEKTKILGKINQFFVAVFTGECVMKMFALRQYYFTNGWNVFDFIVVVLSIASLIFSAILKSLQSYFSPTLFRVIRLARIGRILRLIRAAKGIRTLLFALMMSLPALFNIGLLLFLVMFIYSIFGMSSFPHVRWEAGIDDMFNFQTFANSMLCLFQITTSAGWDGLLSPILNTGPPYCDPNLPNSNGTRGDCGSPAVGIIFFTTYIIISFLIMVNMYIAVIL

SMILES	IC50
CN[C@H]1CN(C(=O)c2cc(NC(=O)[C@@H]3O[C@@](C)(C(F)(F)F)[C@@H](C)[C@H]3c3ccc(F)c(F)c3OC)ccn2)C[C@@H]1OC [Compound 256, (2R,3S,4S,5R)-3-(3,4-difluoro-2-methoxyphenyl)-N-(2-((3S,4S)-3-methoxy-4-(methylamino)pyrrolidine-1-carbonyl)pyridin-4-yl)-4,5-dimethyl-5-(trifluoromethyl)tetrahydrofuran-2-carboxamide]	< 10 nM
COc1c([C@H]2[C@H](C(=O)Nc3ccnc(C(=O)N4C[C@@H](N)[C@@H](F)C4)c3)O[C@@](C)(C(F)(F)F)[C@H]2C)ccc(F)c1F [Compound 259, (2R,3S,4S,5R)-N-(2-((3R,4S)-3-amino-4-fluoropyrrolidine-1-carbonyl)pyridin-4-yl)-3-(3,4-difluoro-2-methoxyphenyl)-4,5-dimethyl-5-(trifluoromethyl)tetrahydrofuran-2-carboxamide]	< 10 nM
COc1c([C@H]2[C@H](C(=O)Nc3ccnc(C(=O)N4C[C@H](N)[C@@H](F)C4)c3)O[C@@](C)(C(F)(F)F)[C@H]2C)ccc(F)c1F [Compound 260, (2R,3S,4S,5R)-N-(2-((3S,4S)-3-amino-4-fluoropyrrolidine-1-carbonyl)pyridin-4-yl)-3-(3,4-difluoro-2-methoxyphenyl)-4,5-dimethyl-5-(trifluoromethyl)tetrahydrofuran-2-carboxamide]	< 10 nM
COc1c([C@H]2[C@H](C(=O)Nc3ccnc(C(=O)N4C[C@@H](N)[C@@H](OC)C4)c3)O[C@@](C)(C(F)(F)F)[C@H]2C)ccc(F)c1F [Compound 261, (2R,3S,4S,5R)-N-(2-((3R,4S)-3-amino-4-methoxypyrrolidine-1-carbonyl)pyridin-4-yl)-3-(3,4-difluoro-2-methoxyphenyl)-4,5-dimethyl-5-(trifluoromethyl)tetrahydrofuran-2-carboxamide]	< 10 nM
COc1c([C@H]2[C@H](C(=O)Nc3ccnc(C(=O)N4C[C@@H](N)[C@H](OC)C4)c3)O[C@@](C)(C(F)(F)F)[C@H]2C)ccc(F)c1F [Compound 263, (2R,3S,4S,5R)-N-(2-((3R,4R)-3-amino-4-methoxypyrrolidine-1-carbonyl)pyridin-4-yl)-3-(3,4-difluoro-2-methoxyphenyl)-4,5-dimethyl-5-(trifluoromethyl)tetrahydrofuran-2-carboxamide]	< 10 nM
COc1c([C@H]2[C@H](C(=O)Nc3ccnc(C(=O)NC[C@@H]4CC(F)(F)CN4C)c3)O[C@@](C)(C(F)(F)F)[C@H]2C)ccc(F)c1F [Compound 267, N-(((S)-4,4-difluoro-1-methylpyrrolidin-2-yl)methyl)-4-((2R,3S,4S,5R)-3-(3,4-difluoro-2-methoxyphenyl)-4,5-dimethyl-5-(trifluoromethyl)tetrahydrofuran-2-carboxamido)picolinamide]	100 to 1000 nM
COc1c([C@H]2[C@H](C(=O)Nc3ccnc(C(=O)N4CC5(CN(C)C5)C4)c3)O[C@@](C)(C(F)(F)F)[C@H]2C)ccc(F)c1F [Compound 268, (2R,3S,4S,5R)-3-(3,4-difluoro-2-methoxyphenyl)-4,5-dimethyl-N-(2-(6-methyl-2,6-diazaspiro[3.3]heptane-2-carbonyl)pyridin-4-yl)-5-(trifluoromethyl)tetrahydrofuran-2-carboxamide]	< 10 nM
COc1c([C@H]2[C@H](C(=O)Nc3ccnc(C(=O)N(C)[C@@H]4CCN(C)C4)c3)O[C@@](C)(C(F)(F)F)[C@H]2C)ccc(F)c1F [Compound 269, 4-((2R,3S,4S,5R)-3-(3,4-difluoro-2-methoxyphenyl)-4,5-dimethyl-5-(trifluoromethyl)tetrahydrofuran-2-carboxamido)-N-methyl-N-((R)-1-methylpyrrolidin-3-yl)picolinamide]	< 10 nM
COc1c([C@H]2[C@H](C(=O)Nc3ccnc(C(=O)NCCN(C)C)c3)O[C@@](C)(C(F)(F)F)[C@H]2C)ccc(F)c1F [Compound 271, 4-((2R,3S,4S,5R)-3-(3,4-difluoro-2-methoxyphenyl)-4,5-dimethyl-5-(trifluoromethyl)tetrahydrofuran-2-carboxamido)-N-(2-(dimethylamino)ethyl)picolinamide]	< 10 nM
COc1c([C@H]2[C@H](C(=O)Nc3ccnc(C(=O)N4CCN(C)C[C@@H]4C)c3)O[C@@](C)(C(F)(F)F)[C@H]2C)ccc(F)c1F [Compound 272, (2R,3S,4S,5R)-3-(3,4-difluoro-2-methoxyphenyl)-N-(2-((S)-2,4-dimethylpiperazine-1-carbonyl)pyridin-4-yl)-4,5-dimethyl-5-(trifluoromethyl)tetrahydrofuran-2-carboxamide]	10 to 100 nM
COc1c([C@H]2[C@H](C(=O)Nc3ccnc(C(=O)N(C)CCN(C)C)c3)O[C@@](C)(C(F)(F)F)[C@H]2C)ccc(F)c1F [Compound 273, 4-((2R,3S,4S,5R)-3-(3,4-difluoro-2-methoxyphenyl)-4,5-dimethyl-5-(trifluoromethyl)tetrahydrofuran-2-carboxamido)-N-(2-(dimethylamino)ethyl)-N-methylpicolinamide]	< 10 nM

Results, then the compound that gave them:

IC50	SMILES
< 10 nM	COc1c([C@H]2[C@H](C(=O)Nc3ccnc(C(=O)N4C[C@H](N)[C@H](OC)C4)c3)O[C@@](C)(C(F)(F)F)[C@H]2C)ccc(F)c1F [Compound 257, (2R,3S,4S,5R)-N-(2-((3S,4R)-3-amino-4-methoxypyrrolidine-1-carbonyl)pyridin-4-yl)-3-(3,4-difluoro-2-methoxyphenyl)-4,5-dimethyl-5-(trifluoromethyl)tetrahydrofuran-2-carboxamide]
< 10 nM	COc1c([C@H]2[C@H](C(=O)Nc3ccnc(C(=O)N4C[C@@H](N)[C@H](F)C4)c3)O[C@@](C)(C(F)(F)F)[C@H]2C)ccc(F)c1F [Compound 258, (2R,3S,4S,5R)-N-(2-((3R,4R)-3-amino-4-fluoropyrrolidine-1-carbonyl)pyridin-4-yl)-3-(3,4-difluoro-2-methoxyphenyl)-4,5-dimethyl-5-(trifluoromethyl)tetrahydrofuran-2-carboxamide]
< 10 nM	COc1c([C@H]2[C@H](C(=O)Nc3ccnc(C(=O)N4C[C@H](OC)[C@@H](N)C4)c3)O[C@@](C)(C(F)(F)F)[C@H]2C)ccc(F)c1F [Compound 262, (2R,3S,4S,5R)-N-(2-((3S,4S)-3-amino-4-methoxypyrrolidine-1-carbonyl)pyridin-4-yl)-3-(3,4-difluoro-2-methoxyphenyl)-4,5-dimethyl-5-(trifluoromethyl)tetrahydrofuran-2-carboxamide]
10 to 100 nM	COc1c([C@H]2[C@H](C(=O)Nc3ccnc(C(=O)N4CCC45CN(C)C5)c3)O[C@@](C)(C(F)(F)F)[C@H]2C)ccc(F)c1F [Compound 266, (2R,3S,4S,5R)-3-(3,4-difluoro-2-methoxyphenyl)-4,5-dimethyl-N-(2-(6-methyl-1,6-diazaspiro[3.3]heptane-1-carbonyl)pyridin-4-yl)-5-(trifluoromethyl)tetrahydrofuran-2-carboxamide]
10 to 100 nM	COc1c([C@H]2[C@H](C(=O)Nc3ccnc(C(=O)N4CC5(CCCN5C)C4)c3)O[C@@](C)(C(F)(F)F)[C@H]2C)ccc(F)c1F [Compound 270, (2R,3S,4S,5R)-3-(3,4-difluoro-2-methoxyphenyl)-4,5-dimethyl-N-(2-(5-methyl-2,5-diazaspiro[3.4]octane-2-carbonyl)pyridin-4-yl)-5-(trifluoromethyl)tetrahydrofuran-2-carboxamide]
